≈ marks a conversion by molar mass, not a printed value.
Key:
[1] = biological target: T1, Phospho-N-acetylmuramoyl-pentapeptide-transferase (Aquifex aeolicus (strain VF5), UniProt O66465); assay: Inhibition of MraY in Aquifex aeolicus
T1 sequence (O66465 whole entry): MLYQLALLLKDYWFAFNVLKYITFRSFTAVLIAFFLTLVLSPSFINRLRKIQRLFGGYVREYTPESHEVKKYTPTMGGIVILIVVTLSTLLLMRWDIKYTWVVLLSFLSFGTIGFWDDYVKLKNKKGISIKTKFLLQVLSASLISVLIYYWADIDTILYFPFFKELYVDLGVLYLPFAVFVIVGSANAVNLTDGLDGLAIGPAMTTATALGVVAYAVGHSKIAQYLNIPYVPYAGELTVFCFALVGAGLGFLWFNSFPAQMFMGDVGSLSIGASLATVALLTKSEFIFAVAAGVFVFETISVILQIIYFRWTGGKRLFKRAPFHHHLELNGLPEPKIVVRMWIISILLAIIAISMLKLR

Enterococcus faecium = assay: Antibacterial activity against Enterococcus faecium SR7917 (VRE); assay type: functional
Enterococcus faecalis [2] = assay: Antibacterial activity against Enterococcus faecalis SR7914 (VRE); assay type: functional
Staphylococcus aureus [3] = assay: Antibacterial activity against methicillin resistant Staphylococcus aureus SR3637; assay type: functional
Enterococcus faecalis [4] = assay: Antibacterial activity against Enterococcus faecalis ATCC 29212; assay type: functional
Staphylococcus aureus [5] = assay: Antibacterial activity against methicillin susceptible Staphylococcus aureus ATCC 29213; assay type: functional
[6] = Antibacterial activity against Mycobacterium avium subsp. avium ATCC 25291; assay type: functional
[7] = tested on: Mycobacterium tuberculosis; assay: Antibacterial activity against Mycobacterium tuberculosis H37Rv; assay type: functional
Mycolicibacterium phlei = assay: Antibacterial activity against Mycobacterium phlei; assay type: functional
[8] = tested on: Mycobacterium tuberculosis; assay: Antibacterial activity against Mycobacterium tuberculosis Kurono; assay type: functional
Mycolicibacterium vaccae = assay: Antibacterial activity against Mycobacterium vaccae ATCC 15483; assay type: functional
Staphylococcus aureus [9] = assay: Antibacterial activity against methicillin resistant Staphylococcus aureus No. 5; assay type: functional
Staphylococcus aureus [10] = assay: Antibacterial activity against Staphylococcus aureus FDA 209P; assay type: functional
[11] = tested on: Mycobacterium tuberculosis; assay: Antibacterial activity against Mycobacterium tuberculosis JCM 6384; assay type: functional
Escherichia coli [12] = assay: Antibacterial activity against Escherichia coli K-12; assay type: functional
Bacillus subtilis = assay: Antibacterial activity against Bacillus subtilis PCI 219; assay type: functional
[13] = tested on: Mycolicibacterium smegmatis; assay: Antibacterial activity against Mycobacterium smegmatis ATCC 607; assay type: functional
Staphylococcus aureus [14] = assay: Antibacterial activity against methicillin resistant Staphylococcus aureus MS16526; assay type: functional
Streptococcus pneumoniae = assay: Antibacterial activity against Streptococcus pneumoniae PCI 602; assay type: functional
[15] = biological target: T2, Phospho-N-acetylmuramoyl-pentapeptide-transferase (Bacillus subtilis (strain 168), UniProt Q03521); assay: Inhibition of MraY in Bacillus subtilis
T2 sequence (Q03521 whole entry): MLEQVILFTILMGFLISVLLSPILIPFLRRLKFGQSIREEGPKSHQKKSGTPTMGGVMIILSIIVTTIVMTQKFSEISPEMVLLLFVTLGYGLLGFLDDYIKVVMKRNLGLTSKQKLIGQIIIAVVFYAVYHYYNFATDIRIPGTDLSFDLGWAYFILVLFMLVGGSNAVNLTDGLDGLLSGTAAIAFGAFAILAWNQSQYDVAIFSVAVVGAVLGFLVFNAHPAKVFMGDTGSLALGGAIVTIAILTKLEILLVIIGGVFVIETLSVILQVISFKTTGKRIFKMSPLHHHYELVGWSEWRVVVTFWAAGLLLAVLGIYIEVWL

Escherichia coli [16] = assay: Antibacterial activity against Escherichia coli expressing MraY; assay type: functional, organism-based

In the case of `NC[C@H]1O[C@@H](O[C@@H](Cn2cc(CCCCCCCCCCO)nn2)[C@H]2O[C@@H](n3ccc(=O)[nH]c3=O)[C@H](O)[C@@H]2O)[C@H](O)[C@@H]1O`, the IC50 [1] is reported as 75 µM.
For `NC[C@H]1O[C@@H](O[C@@H](Cc2cn(CCCCCCCCCCOc3ccc(C(=O)c4ccccc4)cc3)nn2)[C@H]2O[C@@H](n3ccc(=O)[nH]c3=O)[C@H](O)[C@@H]2O)[C@H](O)[C@@H]1O`, the IC50 [1] was 25 µM.
Compound `NC[C@H]1O[C@@H](O[C@@H](Cn2cc(CCOCCOCCOCCOCCO)nn2)[C@H]2O[C@@H](n3ccc(=O)[nH]c3=O)[C@H](O)[C@@H]2O)[C@H](O)[C@@H]1O` has an IC50 [1] of 450 µM.
Compound `CCCCCCCCCCCCCCC[C@H](NC(=O)[C@@H](N)CCCNC(=N)N)C(=O)NC[C@@H]1CC2[C@@H](C(=O)N1)[C@H]([C@H]1O[C@@H](n3ccc(=O)[nH]c3=O)[C@H](O)[C@@H]1O)ON2CCCN` (single isomer, unassigned) has an MIC (Enterococcus faecium) of 16 µg/mL (≈ 18.5 µM), an MIC (Enterococcus faecalis [2]) of 32 µg/mL (≈ 37 µM) and an MIC (Staphylococcus aureus [3]) of 32 µg/mL (≈ 37 µM). The MIC (Enterococcus faecalis [4]) was 16 µg/mL (≈ 18.5 µM) and the MIC (Staphylococcus aureus [5]) was greater than 64 µg/mL.
`NC[C@H]1O[C@@H](O[C@@H](Cc2cn(CCOCCOCCOCCOCCO)nn2)[C@H]2O[C@@H](n3ccc(=O)[nH]c3=O)[C@H](O)[C@@H]2O)[C@H](O)[C@@H]1O` gave an IC50 [1] of 750 µM.
With `CCCCCCCCCCCCNC(=O)C1=CCN(C)[C@@H]([C@H](O[C@@H]2O[C@H](CN)[C@@H](O)[C@H]2O)[C@H]2O[C@@H](n3ccc(=O)[nH]c3=O)[C@H](O)[C@@H]2O)C(=O)N1C` the MIC [6] was 3.13 µg/mL (≈ 4.32 µM), the MIC [7] was 1.56 µg/mL (≈ 2.15 µM) and the MIC (Mycolicibacterium phlei) was 0.39 µg/mL (≈ 0.538 µM). The MIC [8] was 1.56 µg/mL (≈ 2.15 µM), the MIC (Mycolicibacterium vaccae) was 1.56 µg/mL (≈ 2.15 µM) and the MIC (Staphylococcus aureus [9]) was 12.5 µg/mL (≈ 17.2 µM). The MIC (Staphylococcus aureus [10]) was 3.13 µg/mL (≈ 4.32 µM), the MIC [11] was 0.2 µg/mL (≈ 0.276 µM) and the MIC (Escherichia coli [12]) was 100 µg/mL (≈ 138 µM). It also gave an MIC (Bacillus subtilis) of 0.78 µg/mL (≈ 1.08 µM), an MIC [13] of 0.39 µg/mL (≈ 0.538 µM) and an MIC (Staphylococcus aureus [14]) of 6.25 µg/mL (≈ 8.62 µM). It also gave an MIC (Streptococcus pneumoniae) of 6.25 µg/mL (≈ 8.62 µM).
Compound `NC[C@H]1O[C@@H](O[C@@H](Cc2cn(CCCCCO)nn2)[C@H]2O[C@@H](n3ccc(=O)[nH]c3=O)[C@H](O)[C@@H]2O)[C@H](O)[C@@H]1O` has an IC50 [1] of 400 µM.
With `NC[C@H]1O[C@@H](O[C@@H](Cn2cc(Cc3ccc(COc4ccc(C(=O)c5ccccc5)cc4)cc3)nn2)[C@H]2O[C@@H](n3ccc(=O)[nH]c3=O)[C@H](O)[C@@H]2O)[C@H](O)[C@@H]1O` the IC50 [1] was 100 µM.
For `NCCCCCCCCCc1cn(C[C@H](O[C@@H]2O[C@H](CN)[C@@H](O)[C@H]2O)[C@H]2O[C@@H](n3ccc(=O)[nH]c3=O)[C@H](O)[C@@H]2O)nn1`, the IC50 [1] was 250 µM.
Compound `NC[C@H]1O[C@@H](O[C@@H](c2cn(CCN3CCN(c4ccc(N)cn4)CC3)nn2)[C@H]2O[C@@H](n3ccc(=O)[nH]c3=O)[C@H](O)[C@@H]2O)[C@H](O)[C@@H]1O` has an IC50 [15] greater than 1000 µM.
`NC[C@H]1O[C@@H](O[C@@H](Cn2cc(CCCCCO)nn2)[C@H]2O[C@@H](n3ccc(=O)[nH]c3=O)[C@H](O)[C@@H]2O)[C@H](O)[C@@H]1O` gave an IC50 [1] of 400 µM.
With `O=CNC[C@H]1O[C@@H](OC[C@H]2O[C@@H](n3ccc(=O)[nH]c3=O)[C@H](O)[C@@H]2O)[C@H](O)[C@@H]1O` the IC50 (Escherichia coli [16]) was greater than 1000 µM.
In the case of `NC[C@H]1O[C@@H](OC[C@H]2O[C@@H](n3ccc(=O)[nH]c3=O)[C@H](O)[C@@H]2O)C[C@@H]1O`, the IC50 (Escherichia coli [16]) is reported as 115 µM.
Work on `NC[C@H]1O[C@@H](O[C@@H](c2cn(CCc3ccc(-c4ccccc4)cc3)nn2)[C@H]2O[C@@H](n3ccc(=O)[nH]c3=O)[C@H](O)[C@@H]2O)[C@H](O)[C@@H]1O` yielded an IC50 [15] of 400 µM.
In the case of `NC[C@H]1O[C@@H](O[C@@H](c2cn(CCCCCO)nn2)[C@H]2O[C@@H](n3ccc(=O)[nH]c3=O)[C@H](O)[C@@H]2O)[C@H](O)[C@@H]1O`, the IC50 [15] is reported as greater than 1000 µM.
Compound `CCCCCCCCCCCCCCC[C@H](NC(=O)[C@@H](N)CCCNC(=N)N)C(=O)NC[C@@H]1CC2[C@H](C(=O)N1)[C@@H]([C@H]1O[C@@H](n3ccc(=O)[nH]c3=O)[C@H](O)[C@@H]1O)ON2CCCN` (single isomer, unassigned) has an MIC (Enterococcus faecium) of 16 µg/mL (≈ 18.5 µM), an MIC (Enterococcus faecalis [2]) of 32 µg/mL (≈ 37 µM) and an MIC (Staphylococcus aureus [3]) of 32 µg/mL (≈ 37 µM). It also gave an MIC (Enterococcus faecalis [4]) of 32 µg/mL (≈ 37 µM) and an MIC (Staphylococcus aureus [5]) greater than 64 µg/mL.
`NC[C@H]1O[C@@H](O[C@@H](c2cn(CCCn3ccnc3)nn2)[C@H]2O[C@@H](n3ccc(=O)[nH]c3=O)[C@H](O)[C@@H]2O)[C@H](O)[C@@H]1O` gave an IC50 [15] greater than 1000 µM.

Source: ChEMBL document CHEMBL4402510, “Caprazamycins: Promising lead structures acting on a novel antibacterial target MraY” (Eur J Med Chem, 2019)
